These results are taken from article PMC10343205, “Multidirectional Effects of Red Clover (Trifolium pratense L.) in Support of Menopause Therapy” (Molecules, 2023).

The nature of data set [1]: Parallel artificial membrane permeability assay (PAMPA-GIT, PAMPA-BBB, PAMPA-SKIN). Conditions: isoflavones from red clover extracts, donor 12.5 mg/mL, pH 7.4, 4 h at 37 °C, BBB and SKIN membranes; for Papp at 4 h, 12.5 mg/mL: PAMPA, read-out: Apparent permeability coefficient (Papp). It counts as in vitro ADME. The method, then: Then, 200 μL of the donor solution was added to the donor wells. Subsequently, each filter membrane of the top plate was coated with a suitable lipid solution, i.e., 5 μL BBB, GIT or preincubated with hydration buffer 24 h earlier for SKIN assay (Pion Inc., Billerica, MA, USA), and the acceptor well was filled with 200 μL of acceptor fluid. The acceptor plate and the donor plate were coupled together and incubated for 4 h at 37 °C. After incubation, the plates were separated, and the concentrations of compounds that crossed the membrane were determined using HPLC. To calculate Papp, the following equation was used:(3) Papp=−ln1−CA/Cequilibrium/S×1/VD+1/VA×t where Papp—effective permeability coefficient (cm/s), VD—donor volume, VA—acceptor volume, Cequilibrium—equilibrium concentration, S—membrane area, and t—incubation time (in seconds).
Samples were analyzed in triplicate.
A general note: In PAMPA a lipid-coated filter parts donor from acceptor wells.

Data set [2] can be described thus: CUPRAC assay (antioxidant activity). Conditions: standard substance. The method, then:
To create the CUPRAC reagent, a conical flask wrapped in aluminum foil was used. Equal volumes of a 7.5 mM neocuproine solution in 96% ethanol, a 10 mM aqueous copper chloride solution and an ammonium acetate buffer solution (pH = 7) were added to the flask. In the 96-well plate, 50.0 µL of the test sample and 150.0 µL of the CUPRAC reagent solution were combined. The blank consisted of a mixture of the CUPRAC reagent and the solvent used for extraction. The assay was replicated six times. The plate was covered with aluminum foil, shaken for 5 min at 25 °C and then incubated at room temperature for 25 min. The absorbance was measured at 450 nm using a plate reader (Multiskan GO 1510, Thermo Fisher Scientific, Vantaa, Finland). […] This value was determined using a polynomial trend line.

Data set [3] can be described thus: DPPH assay (free radical scavenging). The conditions noted are these: standard substance. The method, then:
In summary, a 96-well plate was used for the assay. Each well contained 25.0 μL of the test sample and 175.0 μL of a DPPH radical solution (3.9 mg/50 mL) in methanol. The control sample consisted of the DPPH radical solution and the solvent used for extraction, while the blank represented the absorbance value obtained from combining 25.0 μL of the extraction solvent with 175.0 μL of the solvent used to dissolve the DPPH radical (methanol). This procedure was repeated six times. The plate was shaken for 5 min at 25 °C and then incubated for 25 min at room temperature. The absorbance was measured at 517 nm using a plate reader (Multiskan GO 1510, Thermo Fisher Scientific, Vantaa, Finland). The free radical scavenging capacity (%) of the test extracts and the standard substance was calculated using the following equation:(1) […] activity%=A0-A1/A0×100% where A0 is the absorbance of the control, and A1 is the absorbance of the tested sample.
For orientation: DPPH is a stable violet radical that fades when it is reduced.

In the next data set the target is collagenase. Kind of data set: Collagenase inhibition assay. It counts as biochemical. The conditions noted are these: positive control. As for the experimental part: The collagenase inhibitory activity of each sample was determined in vitro according to Widodo et al. with some modifications. In summary, 15.0 μL of enzyme, 60 μL of tricine buffer (pH 7.5) and 30 μL of extracts (50 mg/mL) were mixed and incubated at 37 °C for 20 min. Next, 20 μL of FALGPA (0.5 mM) was added to the mixture, and the absorbance was immediately measured at 325 nm using the plate reader (Multiskan GO 1510, Thermo Fisher Scientific, Vantaa, Finland). The absorbance was measured again after 20 min of incubation at 37 °C following the addition of the substrate. A control sample containing only the solvent used instead of the extract was performed, and the results were reduced by the value of the blank representing the enzyme-free sample. The positive control was a sample containing a solution of epigallocatechin gallate instead of the extract tested. The collagenase inhibition rate (presented for the final concentration of substance in enzymatic reaction) expressed as a percentage of inhibition was calculated using Formula (2).

Details of data set [4]: method as in PMID 29504397. The conditions noted are these: rat study; cited from earlier work.

On to `COc1ccc(-c2coc3cc(O)cc(O)c3c2=O)cc1` [biochanin A], for which the Papp at 4 h, 12.5 mg/mL in data set [1] was more than 1 ×10⁻⁶ cm/s.

Take `O=C1O[C@H]([C@@H](O)CO)C(O)=C1O` [Ascorbic acid]: the “CUPRAC IC50” value in data set [2] was found to be 73 ± 3 µg/mL. Moreover, the “DPPH IC50” value in data set [3] was determined as 68 ± 5 µg/mL.

Regarding `O=c1c(-c2ccc(O)cc2)coc2cc(O)cc(O)c12` [genistein], in data set [1], the “Apparent permeability coefficient (Papp)” value is given as “did not show such permeability”.

With `O=C(O[C@@H]1Cc2c(O)cc(O)cc2O[C@@H]1c1cc(O)c(O)c(O)c1)c1cc(O)c(O)c(O)c1` [EGCG, epigallocatechin gallate], the “Collagenase inhibition IC50” value at collagenase is given as “IC50 = 0.666 ± 0.007 mg/ml”.

In the case of `COc1ccc(-c2coc3cc(O)ccc3c2=O)cc1` [formononetin], in data set [1], the apparent permeability coefficient (Papp) at 4 h, 12.5 mg/mL is more than 1 ×10⁻⁶ cm/s. For the same compound, the bioavailability in data set [4] is on record as 21.8%.

For orientation: Papp means a coefficient for how fast a substance crosses the barrier. The term bioavailability denotes dose-corrected exposure relative to a reference, in per cent.
